Drawing on PubChem BioAssay (NCI), this text covers TGI for 13 compounds.

SMILES strings stand for the structures.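 Growth conditions: 96-well plates. Treatment: test compound, 48 hours, 5 concentrations. Analysis: linear interpolation between bracketing concentrations; unreached endpoints set to highest concentration. At the TGI there is no net growth.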 A value given as a limit tells only on which side of the number the result lay.

Test systems include OVCAR-5 ovarian; MDA-N; HT29 colon; SK-MEL-5 melanoma; MDA-MB-435; IGROV1 ovarian; RXF 393 renal; MCF7 breast; MDA-MB-231 breast; UACC-62 melanoma; SNB-19 CNS.
Holding throughout (experiment): NCI-60 cell line screen, 48 h

Regarding `O=C(N/N=C/c1ccc([N+](=O)[O-])o1)c1ccc(C(=O)N/N=C/c2ccc([N+](=O)[O-])o2)cc1`, the TGI is over 100 µM with OVCAR-5 ovarian; 50.2 µM in the assay with MDA-N; over 100 µM with HT29 colon; 55.6 µM in the assay with SK-MEL-5 melanoma; 30.9 µM in the assay on MDA-MB-435; over 100 µM in the assay on IGROV1 ovarian. Moreover, the TGI in the assay on RXF 393 renal was over 100 µM; in the assay with MCF7 breast, 48.9 µM; in the assay with MDA-MB-231 breast, over 100 µM; in the assay on UACC-62 melanoma it was over 100 µM; with SNB-19 CNS, over 100 µM.

As to `O=C(Nc1c(C(F)(F)F)cc(-c2ccccc2)[nH]c1=O)N1CCOCC1`, the TGI in the assay with OVCAR-5 ovarian, with MDA-N, in the assay with HT29 colon, with SK-MEL-5 melanoma, in the assay on MDA-MB-435 and in the assay with IGROV1 ovarian was over 100 µM throughout. The TGI in the assay on RXF 393 renal, in the assay on MCF7 breast, in the assay with MDA-MB-231 breast, with UACC-62 melanoma and in the assay on SNB-19 CNS was over 100 µM throughout.

On to `CCOC(=O)C(C(=O)c1ccccc1C(=O)OC)=P(c1ccccc1)(c1ccccc1)c1ccccc1`, for which the TGI in the assay with OVCAR-5 ovarian, with MDA-N, in the assay with HT29 colon, with SK-MEL-5 melanoma, in the assay on MDA-MB-435 and in the assay on IGROV1 ovarian was over 10 µM throughout. In addition, the TGI with RXF 393 renal, with MCF7 breast, in the assay on MDA-MB-231 breast, in the assay with UACC-62 melanoma and in the assay with SNB-19 CNS was over 10 µM throughout.

`Cc1ccc(S(=O)(=O)N2C[C@](O)(c3ccccc3)[C@H]2C)cc1`: the TGI in the assay on OVCAR-5 ovarian, in the assay on MDA-N, with HT29 colon, in the assay on SK-MEL-5 melanoma, with MDA-MB-435 and in the assay with IGROV1 ovarian was over 100 µM throughout. Moreover, the TGI in the assay with RXF 393 renal, in the assay with MCF7 breast, in the assay with MDA-MB-231 breast, in the assay on UACC-62 melanoma and with SNB-19 CNS was over 100 µM each time.

For `CCCCOC(=O)NC(Nc1cccc(C(F)(F)F)c1)(C(F)(F)F)C(F)(F)F`, the TGI in the assay with OVCAR-5 ovarian, in the assay with MDA-N, in the assay on HT29 colon, in the assay on SK-MEL-5 melanoma, in the assay with MDA-MB-435 and with IGROV1 ovarian was over 100 µM throughout. Moreover, the TGI in the assay on RXF 393 renal, with MCF7 breast, with MDA-MB-231 breast, in the assay on UACC-62 melanoma and in the assay with SNB-19 CNS was over 100 µM throughout.

Turning to `CC1=CCC2C3(C)CCC2(C(C)C)C1C3` (configuration not stated) (tested in a mixture with another compound), the TGI in the assay with OVCAR-5 ovarian is 37.6 µM; with MDA-N it was over 100 µM; in the assay on HT29 colon, 32.4 µM; in the assay on MDA-MB-435, 88.2 µM; with IGROV1 ovarian, 35.1 µM; in the assay on RXF 393 renal, 33.2 µM. Moreover, the TGI is 34.3 µM with MCF7 breast, 55.6 µM in the assay with MDA-MB-231 breast, over 100 µM in the assay with UACC-62 melanoma and 33.8 µM with SNB-19 CNS.

Turning to `Cc1c2c(n(CCc3ccccc3)c1C)N(C)N=C(C#N)S2(=O)=O`, the TGI in the assay on OVCAR-5 ovarian, with MDA-N, with HT29 colon, in the assay with SK-MEL-5 melanoma, in the assay on MDA-MB-435 and in the assay on IGROV1 ovarian was over 100 µM throughout. The TGI in the assay with RXF 393 renal, with MCF7 breast, in the assay on MDA-MB-231 breast, in the assay on UACC-62 melanoma and in the assay on SNB-19 CNS was over 100 µM in each case.

With `CN(C)Cc1cc(C(C)(C)C)ccc1-c1ccc(C(C)(C)C)cc1CN(C)C`, the TGI with OVCAR-5 ovarian, in the assay on MDA-N, with HT29 colon, with SK-MEL-5 melanoma, in the assay on MDA-MB-435 and in the assay with IGROV1 ovarian was over 100 µM each time. Further, the TGI in the assay on RXF 393 renal, with MCF7 breast, in the assay with MDA-MB-231 breast, in the assay with UACC-62 melanoma and with SNB-19 CNS was over 100 µM in each case.

For `O=C1NC(N2CCCCC2)=N/C1=C\c1cccs1`, the TGI with OVCAR-5 ovarian, with MDA-N, in the assay with HT29 colon, with MDA-MB-435, with IGROV1 ovarian and in the assay with RXF 393 renal was over 100 µM throughout. Further, the TGI with MCF7 breast, in the assay with MDA-MB-231 breast, in the assay with UACC-62 melanoma and with SNB-19 CNS was over 100 µM each time.

Take `O=C1CC(=O)NC(=NN2C(=O)/C(=C/c3ccccc3)N=C2c2ccccc2)N1`: the TGI with OVCAR-5 ovarian, in the assay on MDA-N, in the assay with HT29 colon, with SK-MEL-5 melanoma, with MDA-MB-435 and with IGROV1 ovarian was over 100 µM each time. In addition, the TGI with RXF 393 renal was over 100 µM; in the assay with MCF7 breast, over 100 µM; with MDA-MB-231 breast, over 100 µM; with UACC-62 melanoma it was 96.5 µM.

As for `Cc1nc(C(N)=S)sc1C(/C=C/c1ccc(Cl)c(Cl)c1)=N/NC(C)(C)C`, the TGI in the assay with MDA-N, in the assay on HT29 colon, in the assay with SK-MEL-5 melanoma, in the assay on MDA-MB-435, in the assay with IGROV1 ovarian and in the assay with RXF 393 renal was over 100 µM each time. In addition, the TGI in the assay on MCF7 breast, in the assay with MDA-MB-231 breast, in the assay with UACC-62 melanoma and in the assay with SNB-19 CNS was over 100 µM throughout.

As for `Oc1ccccc1C=Nc1ccc(-c2nc3ccccc3[nH]2)cc1`, the TGI with OVCAR-5 ovarian, with MDA-N, in the assay on HT29 colon, with SK-MEL-5 melanoma, in the assay on MDA-MB-435 and in the assay on IGROV1 ovarian was over 100 µM in each case. Further, the TGI with RXF 393 renal, with MCF7 breast, in the assay on MDA-MB-231 breast and with SNB-19 CNS was over 100 µM in each case.

Take `CC(=O)Oc1cc2c(c3ncccc13)OC(C)(C)C2`: the TGI was determined as 29 µM with OVCAR-5 ovarian; 10.9 µM in the assay on MDA-N; 36.9 µM in the assay on HT29 colon; 25.4 µM in the assay with SK-MEL-5 melanoma; 24 µM in the assay on MDA-MB-435; 12.4 µM with IGROV1 ovarian. Moreover, the TGI is 26.8 µM in the assay with RXF 393 renal, 61.8 µM in the assay on MCF7 breast, 24.4 µM with MDA-MB-231 breast and over 100 µM in the assay with UACC-62 melanoma.
